Reference: ChEMBL document CHEMBL3885861, “Open TG-GATES”

Organism: Rattus norvegicus
Test: Open TG-GATES - Regimen: Single
Format: toxicity, organism-based, Sprague-Dawley
Parameters: regimen Single, gender Male, age 6 weeks
Conditions: in vivo, po, 60 mg/kg, route gavage, dose level High; for APTT / Bas / Eos / Fbg / Hb / Ht / Lym / MCH / MCHC / MCV / Mono / Neu / PT / Plat / RBC / Ret / WBC: tissue Blood; for LIVER: tissue Liver; for A/G / ALP / ALT / AST / BUN / CRE / Ca / Cl / DBIL / GLC / IP / K / LDH / Na / PL / RALB / TBIL / TC / TG / TP / gamma-GTP: tissue Plasma

In the case of `O=[N+]([O-])c1ccc(O)c([N+](=O)[O-])c1` [2,4-DINITROPHENOL], the TERMINAL_BW (3 h) is reported as 203.7 g, the APTT (3 h) is reported as 17.2 s and the Bas (3 h) is reported as 0%. The Eos (3 h) was 0.4%, the Fbg (3 h) was 232.6 mg/dL and the Hb (3 h) was 12.5 g/dL. The Ht (3 h) was 37.7%, the Lym (3 h) was 79.6% and the MCH (3 h) was 21.3 pg. It also gave an MCHC (3 h) of 33.4%, an MCV (3 h) of 63.9 fL and a Mono (3 h) of 7%. The Neu (3 h) was 13.2%, the PT (3 h) was 12.4 s and the Plat (3 h) was 127.8 x10_4/uL. It also gave an RBC (3 h) of 590 x10_4/ul, a Ret (3 h) of 8.6% and a WBC (3 h) of 75.8 x10_2/uL. For the same compound, the LIVER (3 h) was 8.6 g, the A/G (3 h) was 2.6 and the ALP (3 h) was 1665.4 IU/L. For the same compound, the ALT (3 h) was 39.6 IU/L, the AST (3 h) was 95.6 IU/L and the BUN (3 h) was 19 mg/dL. It also gave a CRE (3 h) of 0.5 mg/dL, a Ca (3 h) of 11.4 mg/dL and a Cl (3 h) of 103.6 meq/L. The DBIL (3 h) was 0.014 mg/dL, the GLC (3 h) was 236.8 mg/dL and the IP (3 h) was 11.4 mg/dL. For the same compound, the K (3 h) was 4.5 meq/L, the LDH (3 h) was 215 IU/L and the Na (3 h) was 137 meq/L. For the same compound, the PL (3 h) was 129.4 mg/dL, the RALB (3 h) was 3.9 g/dL and the TBIL (3 h) was 0.026 mg/dL. For the same compound, the TC (3 h) was 77.6 mg/dL, the TG (3 h) was 56.8 mg/dL and the TP (3 h) was 5.4 g/dL. The gamma-GTP (3 h) was 0 IU/L, the TERMINAL_BW (6 h) was 206.8 g and the APTT (6 h) was 16.1 s. The Bas (6 h) was 0%, the Eos (6 h) was 0.4% and the Fbg (6 h) was 247.6 mg/dL. It also gave a Hb (6 h) of 12.6 g/dL, a Ht (6 h) of 38% and a Lym (6 h) of 70.4%. For the same compound, the MCH (6 h) was 21.8 pg, the MCHC (6 h) was 33.3% and the MCV (6 h) was 65.6 fL. For the same compound, the Mono (6 h) was 9.4%, the Neu (6 h) was 19.8% and the PT (6 h) was 11.7 s. The Plat (6 h) was 116.6 x10_4/uL, the RBC (6 h) was 580.4 x10_4/ul and the Ret (6 h) was 10%. The WBC (6 h) was 114 x10_2/uL, the LIVER (6 h) was 8.7 g and the A/G (6 h) was 2.7. For the same compound, the ALP (6 h) was 1501.4 IU/L, the ALT (6 h) was 36.2 IU/L and the AST (6 h) was 96.6 IU/L. For the same compound, the BUN (6 h) was 20.6 mg/dL, the CRE (6 h) was 0.6 mg/dL and the Ca (6 h) was 11.4 mg/dL. The Cl (6 h) was 106.6 meq/L, the DBIL (6 h) was 0.012 mg/dL and the GLC (6 h) was 245.4 mg/dL. It also gave an IP (6 h) of 10.2 mg/dL, a K (6 h) of 4.3 meq/L and an LDH (6 h) of 245.4 IU/L. The Na (6 h) was 138.6 meq/L, the PL (6 h) was 150.4 mg/dL and the RALB (6 h) was 4 g/dL. It also gave a TBIL (6 h) of 0.026 mg/dL, a TC (6 h) of 93.4 mg/dL and a TG (6 h) of 31.4 mg/dL. For the same compound, the TP (6 h) was 5.5 g/dL, the gamma-GTP (6 h) was 0 IU/L and the TERMINAL_BW (9 h) was 192.8 g. It also gave an APTT (9 h) of 16.1 s, a Bas (9 h) of 0% and an Eos (9 h) of 0.5%. For the same compound, the Fbg (9 h) was 244.8 mg/dL, the Hb (9 h) was 12.6 g/dL and the Ht (9 h) was 37.6%. It also gave a Lym (9 h) of 74.5%, an MCH (9 h) of 21.8 pg and an MCHC (9 h) of 33.5%. For the same compound, the MCV (9 h) was 65 fL, the Mono (9 h) was 5.8% and the Neu (9 h) was 19.2%. It also gave a PT (9 h) of 11.9 s, a Plat (9 h) of 117.2 x10_4/uL and an RBC (9 h) of 579.2 x10_4/ul. The Ret (9 h) was 8.8%, the WBC (9 h) was 92.8 x10_2/uL and the LIVER (9 h) was 7.3 g. The A/G (9 h) was 2.5, the ALP (9 h) was 1343 IU/L and the ALT (9 h) was 32.2 IU/L. The AST (9 h) was 87.2 IU/L, the BUN (9 h) was 20 mg/dL and the CRE (9 h) was 0.5 mg/dL. For the same compound, the Ca (9 h) was 11.1 mg/dL, the Cl (9 h) was 108 meq/L and the DBIL (9 h) was 0.02 mg/dL. For the same compound, the GLC (9 h) was 247.5 mg/dL, the IP (9 h) was 9.7 mg/dL and the K (9 h) was 4.7 meq/L. For the same compound, the LDH (9 h) was 154.8 IU/L, the Na (9 h) was 138.2 meq/L and the PL (9 h) was 146.5 mg/dL. It also gave an RALB (9 h) of 3.8 g/dL, a TBIL (9 h) of 0.0225 mg/dL and a TC (9 h) of 88.2 mg/dL. The TG (9 h) was 56.2 mg/dL, the TP (9 h) was 5.4 g/dL and the gamma-GTP (9 h) was 0.5 IU/L. For the same compound, the TERMINAL_BW (24 h) was 207.1 g, the APTT (24 h) was 15.7 s and the Bas (24 h) was 0%. For the same compound, the Eos (24 h) was 0.8%, the Fbg (24 h) was 263.6 mg/dL and the Hb (24 h) was 13.3 g/dL. The Ht (24 h) was 39.9%, the Lym (24 h) was 71% and the MCH (24 h) was 21.6 pg. It also gave an MCHC (24 h) of 33.3%, an MCV (24 h) of 64.7 fL and a Mono (24 h) of 8%. It also gave a Neu (24 h) of 20.4%, a PT (24 h) of 11.7 s and a Plat (24 h) of 123.2 x10_4/uL. For the same compound, the RBC (24 h) was 617.2 x10_4/ul, the Ret (24 h) was 8.5% and the WBC (24 h) was 120.4 x10_2/uL. It also gave an LIVER (24 h) of 10.7 g, an A/G (24 h) of 2.4 and an ALP (24 h) of 1582.4 IU/L. For the same compound, the ALT (24 h) was 35.6 IU/L, the AST (24 h) was 73.8 IU/L and the BUN (24 h) was 19.2 mg/dL. The CRE (24 h) was 0.4 mg/dL, the Ca (24 h) was 11.6 mg/dL and the Cl (24 h) was 105.2 meq/L. For the same compound, the DBIL (24 h) was 0.018 mg/dL, the GLC (24 h) was 176.2 mg/dL and the IP (24 h) was 6.4 mg/dL. The K (24 h) was 4.6 meq/L, the LDH (24 h) was 149.2 IU/L and the Na (24 h) was 140 meq/L. The PL (24 h) was 173 mg/dL, the RALB (24 h) was 4 g/dL and the TBIL (24 h) was 0.018 mg/dL. The TC (24 h) was 93.4 mg/dL, the TG (24 h) was 169.6 mg/dL and the TP (24 h) was 5.7 g/dL. For the same compound, the gamma-GTP (24 h) was 0.8 IU/L.
